IC50 data for one compound are collected here from BindingDB's records for patent US9670214 (Dana-Farber Cancer Institute, 2017).

Each structure is given as a SMILES string.

Assay [1] has as its target Non-specific protein-tyrosine kinase [T818I] (Homo sapiens, UniProt A9UEZ6, T818I). The assay can be described thus: Kinase Assay. To be noted: pH 7.5. The text has this: (§1) Recombinant abl was expressed in Sf9 insect cells and purified as described above. Bcr-abl immune complexes were obtained with Ab-3 anti-abl monoclonal antibody (Oncogene Science) from Ba/F3.p210 lysates as previously described. […] (Calbiochem buffer and protocol). The reaction was stopped by addition of Laemmli buffer and the proteins were resolved by SDS-PAGE in a 4-20% gel. The phosphoproteins were visualized by autoradiography and the autophosphorylation quantitated using a phosphoimager (STORM, Molecular Devices).

Assay [2] has as its target Non-specific protein-tyrosine kinase (Homo sapiens, UniProt A9UEZ6). The assay can be described thus: Kinase Assay. The note with it: pH 7.5.
Description: as §1

For orientation: IC50 means the point on the concentration scale where inhibition reaches its midpoint. Low readings indicate higher potency, high ones lower potency.

Chain of Non-specific protein-tyrosine kinase [T818I] (A9UEZ6 as listed by the source T818I): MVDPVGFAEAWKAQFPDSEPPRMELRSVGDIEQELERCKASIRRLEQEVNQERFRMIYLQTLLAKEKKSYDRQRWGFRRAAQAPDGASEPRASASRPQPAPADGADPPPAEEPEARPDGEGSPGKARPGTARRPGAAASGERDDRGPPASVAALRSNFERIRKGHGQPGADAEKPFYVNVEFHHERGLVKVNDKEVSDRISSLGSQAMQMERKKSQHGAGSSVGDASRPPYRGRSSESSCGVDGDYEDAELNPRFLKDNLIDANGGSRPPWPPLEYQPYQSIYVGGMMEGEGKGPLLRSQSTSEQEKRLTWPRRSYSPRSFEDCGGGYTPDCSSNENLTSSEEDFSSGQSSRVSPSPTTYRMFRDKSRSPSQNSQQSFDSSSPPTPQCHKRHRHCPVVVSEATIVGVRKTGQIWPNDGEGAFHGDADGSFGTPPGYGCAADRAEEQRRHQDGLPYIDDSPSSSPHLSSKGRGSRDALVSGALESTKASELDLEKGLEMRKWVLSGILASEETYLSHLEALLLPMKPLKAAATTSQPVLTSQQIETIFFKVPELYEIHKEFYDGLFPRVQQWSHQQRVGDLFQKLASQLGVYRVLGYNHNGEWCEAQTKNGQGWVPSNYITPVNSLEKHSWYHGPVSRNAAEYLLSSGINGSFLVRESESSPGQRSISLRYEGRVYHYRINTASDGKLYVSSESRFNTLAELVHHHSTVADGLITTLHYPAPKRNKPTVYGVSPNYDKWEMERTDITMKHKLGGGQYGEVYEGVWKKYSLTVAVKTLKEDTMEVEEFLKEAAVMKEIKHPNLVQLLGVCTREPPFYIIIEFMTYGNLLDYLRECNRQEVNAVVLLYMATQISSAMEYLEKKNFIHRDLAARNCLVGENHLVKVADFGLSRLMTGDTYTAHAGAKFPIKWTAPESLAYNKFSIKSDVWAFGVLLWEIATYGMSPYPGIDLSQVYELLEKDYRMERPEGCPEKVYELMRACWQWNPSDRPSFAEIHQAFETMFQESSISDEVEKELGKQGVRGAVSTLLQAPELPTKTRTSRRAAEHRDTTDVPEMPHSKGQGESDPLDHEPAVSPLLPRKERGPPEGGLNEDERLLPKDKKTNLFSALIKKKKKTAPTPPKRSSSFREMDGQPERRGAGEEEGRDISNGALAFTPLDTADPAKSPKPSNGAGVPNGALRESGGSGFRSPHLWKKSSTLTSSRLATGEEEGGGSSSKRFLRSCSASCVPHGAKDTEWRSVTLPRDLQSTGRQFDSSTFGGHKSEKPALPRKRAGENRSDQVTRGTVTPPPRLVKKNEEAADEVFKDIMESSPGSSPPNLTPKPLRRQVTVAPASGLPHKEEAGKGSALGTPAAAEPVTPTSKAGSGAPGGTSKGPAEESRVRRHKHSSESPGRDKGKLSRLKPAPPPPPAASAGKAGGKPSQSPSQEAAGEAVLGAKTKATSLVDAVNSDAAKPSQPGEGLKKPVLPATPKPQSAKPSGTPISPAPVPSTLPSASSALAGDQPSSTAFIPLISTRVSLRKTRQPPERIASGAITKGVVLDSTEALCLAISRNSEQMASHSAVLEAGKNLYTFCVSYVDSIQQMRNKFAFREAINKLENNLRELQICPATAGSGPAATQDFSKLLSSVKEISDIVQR
Chain of Non-specific protein-tyrosine kinase (A9UEZ6 whole entry): as the sequence (A9UEZ6 as listed by the source T818I) above, with I818T counted along it

For the compound `FC(F)(F)Oc1ccc(Nc2ncnc3c2cnn3Cc2cccnc2)cc1` [US9670214, TABLE 10.30], the half-maximal inhibitory concentration (IC50) came out at 600 nM in assay [1] and 30 nM in assay [2].
